Common to all, as to format: cell-based
The test system of assay [1] is SU-DHL-4 cells (diffuse large B-cell lymphoma). In words: Cell death inducing effect on SU-DHL-4 cells, trypan blue staining. The conditions noted are these: SU-DHL-4 (DLBCL), cell viability. The protocol: SU-DHL-4 cells (diffuse large B-cell lymphoma) were cultured under 5% CO2 at 37° C.
The culture medium used RPMI-1640 medium with 100 μg/mL penicillin, 100 U/mL streptomycin and fetal bovine serum. SU-DHL-4 cells were seeded into 96-well plates and incubated with each concentration of the compounds was added, and cell viability was determined by the trypan blue staining.
(§1) For controls, only 0.5% DMSO (diluted in PBS) used to dissolve the compounds was added. For each concentration, each bar line is indicated by an arrow with the sign “n, a, 1, 2, 3, 4, 5, 6, 7, 8, 9, 10, 11, 12” from left to right. The “1, 3, 5, 7, 9, 11” are omitted from the graph, but the sign “1” shall be indicated by an arrow between the signs “a” and “2”, the sign “3” between the signs “2” and “4”, and other odd numbers shall likewise be indicated by arrows between even numbers before and after.
(§2) The sign “n” is the norathyriol (formula (n)) administration group, the sign “a” is the mangiferin 8a (formula (a)) administration group, the sign “1” is the yk-7 (formula (1)) administration group, the sign “2” is the yk-8-1 (formula (2)) administration group, the sign “3” is the yk-8-3 (formula (3)) administration group, the sign “4” is the M7 (formula (4)) administration group, the sign “5” is the M9 (formula (5)) administration group, the sign “6” is the M11 (formula (6)) administration group, the sign “7” is the M12 (formula (7)) administration group, the sign “8” is the M14 (formula (8)) administration group, the sign “9” is the M15 (formula (9)) administration group, the sign “10” is the M16 (formula (10)) administration group, the sign “11” is the M18 (formula (11)) administration group, the sign “12” is the M19 (formula (12)) administration group, respectively. The IC50 values for each compound is also listed in the upper right corner of the figure.

In another assay the test system is NF-κB p52 nuclear. Kind of assay: Immunoblotting of NF-κB p52 nuclear in KMS-28BM cells. The conditions noted are these: nuclear fraction, 72 h, same concentrations (0.005-100 μM). Here is the method:
Immunoblotting was performed on KMS-28BM cells to investigate the inhibitory effect of each compound administration on NIK inhibition and the activation of IKK, NF-κB p52, and NF-κB p65, which are downstream signals of NIK. As a result, inhibition of NIK activation, inhibition of IKK activity, and inhibition of nuclear translocation of NF-κB p52 and NF-κB p65 were observed (FIG. 15 and FIG. 16).
As a control, compounds untreated KMS-28BM cells were seeded in 150 cm^2 flasks and incubated for 72 h at 37° C. and 5% CO2. KMS-28BM cells were seeded into 150 cm^2 flasks and pre-cultured for 24 h. After incubation, KMS-28BM cells were treated with […], 1 μM norathyriol, 0.5 μM M7 (formula (4)), 1 μM M8 (mangiferin 8a: listed in duplicate), 0.2 μM M9 (formula (5)), 5 μM yk-7 (formula (1)), 0.5 μM yk-8-3 (formula (3)) and 100 μM yk-8-1 (formula (2)) at final concentrations, and incubated for 72 h at 37° C. and 5% CO2. In addition, KMS-28BM cells were also treated with 0.5 μM M19 (formula (12)), 0.5 μM M18 (formula (11)), 0.005 μM M16 (formula (10)), […] (formula (9)), 0.005 μM M14 (formula (8)), 0.05 μM M12 (formula (7)) and […] (formula (6)) at the final concentrations, and incubated for 72 h at 37° C. and 5% CO2. Proteins were extracted from these cell suspensions with cell lysate and used as samples.
The nucleus and cytoplasmic substrate were separated from the cells using the ProteoExtract (registered trademark) Subcellular Proteome Extraction Kit from Merck Ltd. to extract the cytoplasmic and nuclear fractions.
After SDS-PAGE, each sample was transferred to a PVDF membrane and examined using anti-phospho-NIK, anti-NIK, anti-phospho-IKK, anti-IKK, anti-P-actin, anti-NF-κB p52 and anti-NF-κB p65 antibody, and anti-Lamin antibody.
The antibody species is indicated in the vertical direction. Specifically, for anti-phospho-NIK antibody, “Phospho-NIK” was used, for anti-NIK antibody, “NIK” was used, for anti-phospho-IKK antibody, “Phospho-IKK” was used, for anti-IKK antibody, “IKK” was used, for anti-p-actin antibody, “p-actin” was used, for anti-NF-κB p52 antibody, “NF-κB p52 nuclear” was used, for anti-NF-κB p65 antibody, “NF-κB p65 nuclear” was used, and for anti-Lamin antibody, “Lamin” was used.

The test system of a further assay is CD138. In words: CD138 expression in KMS-28BM cells, flow cytometry. To be noted: 10 days, concentration lower than the IC50 (0.005-50 μM), compared to the positive control. Here is the method: As a control, compounds untreated KMS-28BM cells were seeded in 75 cm^2 flasks and incubated for 10 days at 37° C. and 5% CO2. KMS-28BM cells were seeded into 75 cm^2 flasks and pre-cultured for 4 h. After incubation, KMS-28BM cells were treated with […], 0.05 μM M9, 0.1 μM yk-7, 0.1 μM yk-8-3, 50 μM yk-8-1, 0.5 μM M11, […], 0.005 μM M14, 0.005 μM M15, 0.005 μM M16, 0.5 μM M18, and 0.5 μM M19 at final concentrations, and incubated for 10 days at 37° C. and 5% CO2. This added amount is a concentration lower than the IC50 of the above compounds for KMS-28BM cells. After 10 days of incubation, cells were stained with anti-CD138 antibody, a marker of multiple myeloma grade, and CD138 expression was measured using BD LSRFortessa.
Results are shown in FIG. 17, FIG. 18, FIG. 19 and FIG. 20. The horizontal axis represents the expression level of CD138 and the vertical axis represents the number of cells.
(In general: Flow cytometry measures light scatter and fluorescence of single cells or particles in a stream.)

Assay [2] has as its system Raji cells (burkitt lymphoma cell line). Kind of assay: Cell death inducing effect on Raji cells, trypan blue staining. To be noted: Raji (Burkkit lymphoma), cell viability. Here is the method: Raji cells (burkitt lymphoma cell line) were cultured under 5% CO2 at 37° C. The culture medium used RPMI-1640 medium with 100 μg/mL penicillin, 100 U/mL streptomycin and fetal bovine serum. Raji cells were seeded into 96-well plates and incubated with each concentration of the compounds was added, and cell viability was determined by the trypan blue staining.
as §1, §2

Assay [3] has as its system CCRF-SB cells (acute lymphocytic leukemia cell line). Kind of assay: Cell death inducing effect on CCRF-SB cells, trypan blue staining. The conditions noted are these: CCRF-SB (acute lymphoblastic leukemia), cell viability. The protocol:
CCRF-SB cells (acute lymphocytic leukemia cell line) were cultured under 5% CO2 at 37° C. The culture medium used RPMI-1640 medium with 100 μg/mL penicillin, 100 U/mL streptomycin and fetal bovine serum. CCRF-SB cells were seeded into 96-well plates and incubated with each concentration of the compounds was added, and cell viability was determined by the trypan blue staining.
as §1, §2

A value given as a limit tells only on which side of the number the result lay.

Usually IC50 stands for the concentration that inhibits the measured activity by half. Low readings indicate inhibition by little substance, high ones a need for much substance. For `O=c1c2cc(O)c(O)cc2oc2cc(O)cc(OCCO)c12` [Compound M18, 3,6,7-trihydroxy-1-(2-hydroxyethoxy)-9H-xanthen-9-one], the IC50 was found to be 9.58 µM in assay [1] (Homo sapiens), 5.59 µM in assay [2] (Homo sapiens) and 9.18 µM in assay [3] (Homo sapiens). Also, in the assay on NF-κB p52 nuclear, the “NF-κB p52 nuclear” value was “decreased”. For the same compound, the CD138 expression levels result in the assay on CD138 was “markedly reduced”.

On to `C=CCOc1cc(O)cc2oc3cc(O)c(O)cc3c(=O)c12` [Compound M19, 1-allyloxy-3,6,7-trihydroxy-9H-xanthen-9-one], for which the figures for the IC50 in assay [1] (Homo sapiens), in assay [2] (Homo sapiens) and in assay [3] (Homo sapiens) were 17.4 µM, 8.92 µM and 18.2 µM, respectively. Further, in the assay on NF-κB p52 nuclear, the “NF-κB p52 nuclear” value is “decreased”. In addition, the CD138 expression levels entry in the assay with CD138 is reported as “markedly reduced”.

On to `CCCCC(=O)OC[C@H]1O[C@@H](c2c(O)cc3oc4cc(O)c(O)cc4c(=O)c3c2O)[C@H](OC(=O)CCCC)[C@@H](OC(=O)CCCC)[C@@H]1OC(=O)CCCC` [yk-7, 2′,3′,4′,6′-tetra-O-valerylmangiferin], for which the figures for the IC50 in assay [1] (Homo sapiens), in assay [2] (Homo sapiens) and in assay [3] (Homo sapiens) were 0.288 µM, 0.383 µM and 1.84 µM, respectively. Also, in the assay on NF-κB p52 nuclear, the “NF-κB p52 nuclear” value was “decreased”. The CD138 expression levels result in the assay with CD138 is listed as “markedly reduced”.

Consider `CCCCC(=O)OC[C@H]1O[C@@H](c2c(OC(=O)CCCC)cc3oc4cc(OC(=O)CCCC)c(OC(=O)CCCC)cc4c(=O)c3c2OC(=O)CCCC)[C@H](OC(=O)CCCC)[C@@H](OC(=O)CCCC)[C@@H]1OC(=O)CCCC` [yk-8-1, 1,3,2′,3′,4′,6,6′,7-octa-O-valerylmangiferin], for which the IC50 in assay [1], in assay [2] and in assay [3] was greater than 100 µM each time. Further, the “NF-κB p52 nuclear” value in the assay with NF-κB p52 nuclear is “decreased”. The CD138 expression levels entry in the assay with CD138 was “markedly reduced”.

In the case of `CCCCC(=O)OC[C@H]1O[C@@H](c2c(O)cc3oc4cc(O)c(O)cc4c(=O)c3c2OC(=O)CCCC)[C@H](OC(=O)CCCC)[C@@H](OC(=O)CCCC)[C@@H]1OC(=O)CCCC` [yk-8-3, 1,2′,3′,4′,6-penta-O-valerylmangiferin], the values for the IC50 in assay [1] (Homo sapiens), in assay [2] (Homo sapiens) and in assay [3] (Homo sapiens) were 0.346 µM, 0.865 µM and 2.41 µM, respectively. The “NF-κB p52 nuclear” value with NF-κB p52 nuclear is given as “decreased”. Further, the CD138 expression levels entry in the assay on CD138 is “markedly reduced”.

For the origin of these results see patent US20260200903A1, “PHARMACEUTICAL COMPOSITION FOR AMELIORATING MALIGNANT DISEASES” (KINKI UNIVERSITY, priority 2020, published 2026).
